Reference: patent publication US7662810B2, “2-arylmethylazetidine carbapenem derivatives and preparation thereof” (Korea Research Institute of Chemical Technology, priority 2004, dated 2010)
Converted amounts (≈) assume the structure as drawn. Read-outs that look alike come from different tables or passages of the source.

Legend:
[1] = system: Staphylococcus aureus 692E; assay: Measurement of Minimum Inhibitory Concentration (MIC), MRSA; format: cell-based; settings: Staphylococcus aureus 692E
Experimental: (§1) The antibacterial activities of the compounds of the present invention prepared in the above Examples against Gram-positive and Gram-negative bacteria, MRSA and QRS were tested as follows.
(§2) Respective bacterial strains were inoculated into 3 ml of Fleisch extract broth (beef extract 1%, peptone 1%, NaCl 0.3%, Na2HPO4.12H2O 0.2%, pH 7.4-7.5. 10% horse serum was supplemented for Streptococcus pyogenes and S. facium) and cultured on a shaking incubator at 37° C. for 18 hours. About 10^4 CFU/spot of the cultured bacterial strains were inoculated onto Müller-Hinton agar plates containing serial double dilutions (final concentration of 0.002 to 100 μg/ml) of a test compound employing an automatic inoculator (Dynatech, USA), and incubated at 37° C. for 18 hours. When the incubation was completed, the minimum inhibitory concentration was determined. Meropenem (Yuhan corporation, Korea) and vancomycin (Cj Inco., Korea) were used as standard antibiotics, respectively.

[2] = system: Staphylococcus aureus 690E; assay: as above; format: cell-based; settings: Staphylococcus aureus 690E
Experimental: as §1, §2

[3] = system: Staphylococcus aureus 693E; assay: as above; format: cell-based; settings: Staphylococcus aureus 693E
Experimental: as §1, §2

[4] = system: Staphylococcus aureus 88E; assay: as above; format: cell-based
Experimental: as §1, §2

[5] = system: Staphylococcus aureus 694E; assay: as above; format: cell-based; settings: Staphylococcus aureus 694E
Experimental: as §1, §2

[6] = system: Staphylococcus aureus 208E; assay: as above; format: cell-based; settings: Staphylococcus aureus 208E
Experimental: as §1, §2

[7] = system: Staphylococcus aureus 695E; assay: as above; format: cell-based; settings: Staphylococcus aureus 695E
Experimental: as §1, §2

[8] = system: Staphylococcus aureus 256E; assay: as above; format: cell-based; settings: Staphylococcus aureus 256E
Experimental: as §1, §2

[9] = system: Staphylococcus aureus 697E; assay: as above; format: cell-based; settings: Staphylococcus aureus 697E
Experimental: as §1, §2

[10] = system: Staphylococcus aureus 121E; assay: as above; format: cell-based
Experimental: as §1, §2

Escherichia coli 078 [11] = assay: Determination of Protection Dose (PD50) in Infected Animal Model; format: in vivo; settings: mice infected intraperitoneally with Escherichia coli 078; compound injected intraperitoneally 1 hour after the infection
Experimental: (§3) In order to get the lethal dose (LD100) of bacteria, […] pyogenes 77A and Escherichia coli 078 were each diluted by 10^2˜10^9 times. […] For a main experiment, 3 to 4 week-old SPF ICR male mice were divided into 4 groups each of 8 to 10 mice, and fasted for 24 hours before a test. The solutions of […] pyogenes 77A and Escherichia coli 078 were concentrated to a level that was 2 to 10 times of LD100, and the concentrated […] pyogenes 77A solution mixed with 10% horse serum and the concentrated Escherichia coli 078 solution mixed with 5% hog gastric mucin were each injected intraperitoneally into the mice of each group to induce whole body infection.
(§4) The serially diluted solutions of the compound of Example 14 or meropenem (5 different concentrations) were injected intraperitoneally into the infected mice 1 hour after the infection. All of the mice in the control group injected with physiological salt solution died within 48 hours. The number of survived mouse in each group injected with antibacterial material, were counted to determine PD50, and the 95% confidence interval thereof was calculated employing Probit method.

[12] = system: Staphylococcus pyogenes 77A; assay: as above; format: in vivo; settings: mice infected intraperitoneally with Staphylococcus pyogenes 77A; compound injected intraperitoneally 1 hour after the infection
Experimental: as §3, §4

Escherichia coli 078 [13] = assay: Measurement of Minimum Inhibitory Concentration (MIC); format: cell-based
Experimental: as §1, §2

[14] = system: Klebsiella oxytoca 1082 E; assay: as above; format: cell-based
Experimental: as §1, §2

[15] = system: Staphylococcus pyogenes 77A; assay: as above; format: cell-based; settings: Staphylococcus pyogenes 77A
Experimental: as §1, §2

Escherichia coli TEM = assay: as above; format: cell-based
Experimental: as §1, §2

Escherichia coli DC 0 = assay: as above; format: cell-based
Experimental: as §1, §2

[16] = system: Salmonella typhimurium 179; assay: as above; format: cell-based; settings: Salmonella typhimurium 179
Experimental: as §1, §2

Escherichia coli DC 2 = assay: as above; format: cell-based
Experimental: as §1, §2

[17] = system: Staphylococcus aureus 503; assay: as above; format: cell-based
Experimental: as §1, §2

[18] = system: Enterobacter cloacae 1321 E; assay: as above; format: cell-based
Experimental: as §1, §2

[19] = system: Enterobacter cloacae P 99; assay: as above; format: cell-based
Experimental: as §1, §2

[20] = system: Staphylococcus pyogenes 308A; assay: as above; format: cell-based; settings: Staphylococcus pyogenes 308A
Experimental: as §1, §2

[21] = system: Klebsiella aerogenes 1522 E; assay: as above; format: cell-based
Experimental: as §1, §2

Escherichia coli 1507 E = assay: as above; format: cell-based
Experimental: as §1, §2

[22] = system: Staphylococcus aureus 285; assay: as above; format: cell-based
Experimental: as §1, §2

[23] = system: Staphylococcus faecium MD 8b; assay: as above; format: cell-based; settings: Staphylococcus faecium MD 8b
Experimental: as §1, §2

[24] = Staphylococcus aureus, read-out: MIC

COc1ccc(CN2CC(SC3=C(C(=O)[O-])N4C(=O)[C@H]([C@@H](C)O)[C@H]4[C@H]3C)C2)cc1.[K+] [Exam. 14, Potassium(1R,5S,6S)-2-[1-(4-methoxybenzyl)-azetidine-3-yl-thio]-6-[(1R)-1-hydroxylethyl]-1-methylcarbapen-2-em-3-carboxylate] gave an MIC [1] of 0.391 µg/mL, an MIC [2] of 0.391 µg/mL and an MIC [3] of 0.391 µg/mL. For the same compound, the MIC ([4]; Staphylococcus aureus 88E) was 0.1951 µg/mL, the MIC [5] was 0.098 µg/mL and the MIC [6] was 0.049 µg/mL. For the same compound, the MIC [7] was 0.098 µg/mL, the MIC [8] was 0.025 µg/mL and the MIC [9] was 0.195 µg/mL. The MIC ([10]; Staphylococcus aureus 121E) was 0.098 µg/mL, the PD50 (Escherichia coli 078 [11]) was 1.44 mg/kg and the PD50 [12] was 3.05 mg/kg. It also gave an MIC (Escherichia coli 078 [13]) of 0.013 µg/mL, an MIC [14] of 0.098 µg/mL and an MIC [15] of 0.002 µg/mL. For the same compound, the MIC (Escherichia coli TEM; Escherichia coli TEM) was 0.195 µg/mL, the MIC (Escherichia coli DC 0) was 0.049 µg/mL and the MIC [16] was 0.098 µg/mL. It also gave an MIC (Escherichia coli DC 2) of 0.049 µg/mL, an MIC [17] of 0.025 µg/mL and an MIC [18] of 0.098 µg/mL. It also gave an MIC [19] of 0.391 µg/mL, an MIC [20] of 0.002 µg/mL and an MIC [21] of 0.195 µg/mL. It also gave an MIC (Escherichia coli 1507 E) of 0.098 µg/mL, an MIC [22] of 0.098 µg/mL and an MIC [23] of 1.563 µg/mL.

C[C@@H](O)[C@H]1C(=O)N2C(C(=O)O)=C(S[C@@H]3CN[C@H](C(=O)N(C)C)C3)[C@H](C)[C@H]12 [Meropenem, reference compound] gave an MIC ([1]; read-out: MIC) of 0.098 µg/mL (≈ 0.256 µM), an MIC ([2]; read-out: MIC) of 3.12 µg/mL (≈ 8.15 µM) and an MIC ([3]; read-out: MIC) of 6.25 µg/mL (≈ 16.3 µM). It also gave an MIC ([4]; Staphylococcus aureus) of 0.195 µg/mL (≈ 0.509 µM), an MIC ([5]; read-out: MIC) of 6.25 µg/mL (≈ 16.3 µM) and an MIC ([6]; read-out: MIC) of 0.098 µg/mL (≈ 0.256 µM). It also gave an MIC ([7]; read-out: MIC) of 0.781 µg/mL (≈ 2.04 µM), an MIC ([8]; read-out: MIC) of 0.049 µg/mL (≈ 0.128 µM) and an MIC ([9]; read-out: MIC) of 0.098 µg/mL (≈ 0.256 µM). For the same compound, the MIC ([10]; Staphylococcus aureus) was 0.195 µg/mL (≈ 0.509 µM), the PD50 (Escherichia coli 078 [11]) was 3.31 mg/kg and the PD50 [12] was 9.13 mg/kg. The MIC (Escherichia coli 078 [13]; read-out: MIC) was 0.025 µg/mL (≈ 0.0652 µM), the MIC ([14]; read-out: MIC) was 0.049 µg/mL (≈ 0.128 µM) and the MIC [15, 24] was 0.004 µg/mL (≈ 0.0104 µM). It also gave an MIC (Escherichia coli TEM; Escherichia coli) of 0.025 µg/mL (≈ 0.0652 µM), an MIC (Escherichia coli DC 0; DC0, read-out: MIC) of 0.025 µg/mL (≈ 0.0652 µM) and an MIC ([16]; Salmonella enterica, read-out: MIC) of 0.049 µg/mL (≈ 0.128 µM). For the same compound, the MIC (Escherichia coli DC 2) was 0.025 µg/mL (≈ 0.0652 µM), the MIC ([17]; read-out: MIC) was 0.049 µg/mL (≈ 0.128 µM) and the MIC ([18]; read-out: MIC) was 0.025 µg/mL (≈ 0.0652 µM). The MIC ([19]; P99, read-out: MIC) was 0.049 µg/mL (≈ 0.128 µM), the MIC [20, 24] was 0.007 µg/mL (≈ 0.0183 µM) and the MIC ([21]; read-out: MIC) was 0.049 µg/mL (≈ 0.128 µM). The MIC (Escherichia coli 1507 E; read-out: MIC) was 0.025 µg/mL (≈ 0.0652 µM), the MIC ([22]; read-out: MIC) was 0.098 µg/mL (≈ 0.256 µM) and the MIC ([23]; MD8B, read-out: MIC) was 6.25 µg/mL (≈ 16.3 µM).
